Results as given in patent US10280159B2 (AbbVie Deutschland GmbH & Co. KG, priority 2015, dated 2019).
Where a name gives a salt, the structure may show the parent alone. Read-outs that look alike come from different tables or passages of the source.

Assays:
Format in all cases: cell-based
human S1PR5 = molecular target: T1, human S1PR5 (Homo sapiens, UniProt Q9H228); assay: Intracellular Ca2+ release (FLIPR) agonist potency, S1P5
T1 construct: host or cells: CHO-K1
Outline: (§1)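 Readout: FLIPR fluorescence of intracellular Ca2+ release in CHO-K1 cells co-expressing receptor, aequorin and Gq/i5. Data were normalized to the phospho-fingolimod curve; EC50 from nonlinear fit. Phospho-fingolimod served as positive control.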

human S1PR1 = molecular target: T2, human S1PR1 (Homo sapiens, UniProt P21453); assay: Intracellular Ca2+ release (FLIPR) agonist potency, S1P1
T2 construct: host or cells: CHO-K1
Outline: as §1

human S1PR3 = molecular target: T3, human S1PR3 (Homo sapiens, UniProt Q99500); assay: Intracellular Ca2+ release (FLIPR) agonist potency, S1P3
T3 construct: host or cells: CHO-K1
Description: Agonistic activity was measured using the method described below.
Intracellular Ca^2+ Release
Agonist potency and intrinsic activity was assessed by measurement of intracellular Ca^2+ release. Recombinant CHO-K1 cells (Euroscreen, Brussels, Belgium) expressing human S1PR5, S1PR1, S1PR3 or S1PR4 receptors, aequorin, and GTP binding protein Gq/i5 were cultured using a medium containing nutrient mixture F-12 Ham (Sigma-Aldrich) with 10% FBS, and 100 μg/mL gentamicin and equilibrated at 5% CO2.
Phospho-fingolimod was used as positive control. Antagonists were pre-incubated for 10 min with cells before addition of the agonist (phospho-fingolimod at EC80). Measurements were performed using a fluorometric imaging plate reader FLIPR®tetra (Molecular Devices). Agonist at the human S1P receptors were characterized by deducing EC50 (potency) values from a nonlinear fit to the measured fluorescence raw data after normalization to the reference agonist (phospho-fingolimod) curve.

human S1PR4 = molecular target: T4, human S1PR4 (Homo sapiens, UniProt O95977); assay: Intracellular Ca2+ release (FLIPR) agonist potency, S1P4
T4 construct: host or cells: CHO-K1
T4 sequence (O95977 1-384): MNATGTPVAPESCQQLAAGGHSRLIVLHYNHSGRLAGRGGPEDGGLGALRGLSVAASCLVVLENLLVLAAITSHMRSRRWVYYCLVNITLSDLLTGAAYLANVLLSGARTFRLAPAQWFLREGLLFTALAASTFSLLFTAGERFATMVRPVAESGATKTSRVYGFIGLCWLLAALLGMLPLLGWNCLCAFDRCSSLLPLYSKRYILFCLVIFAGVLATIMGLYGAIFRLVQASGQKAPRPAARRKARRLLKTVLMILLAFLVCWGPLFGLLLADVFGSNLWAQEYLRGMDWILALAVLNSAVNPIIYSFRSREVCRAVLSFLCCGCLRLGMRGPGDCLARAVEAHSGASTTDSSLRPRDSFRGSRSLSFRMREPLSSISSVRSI
Outline: as §1

[1] = recombinant CHO-K1 cells expressing human S1PR5, aequorin, Gq/i5, Calcium 5 FLIPR, read-out: S1P5 EC50 range
[2] = recombinant CHO-K1 cells expressing human S1PR1, aequorin, Gq/i5, Calcium 5 FLIPR, read-out: S1P1 EC50
[3] = recombinant CHO-K1 cells expressing human S1PR3, aequorin, Gq/i5, Calcium 5 FLIPR, read-out: S1P3 EC50
[4] = recombinant CHO-K1 cells expressing human S1PR4, aequorin, Gq/i5, Calcium 5 FLIPR, read-out: S1P4 EC50

T2 sequence (P21453 whole entry): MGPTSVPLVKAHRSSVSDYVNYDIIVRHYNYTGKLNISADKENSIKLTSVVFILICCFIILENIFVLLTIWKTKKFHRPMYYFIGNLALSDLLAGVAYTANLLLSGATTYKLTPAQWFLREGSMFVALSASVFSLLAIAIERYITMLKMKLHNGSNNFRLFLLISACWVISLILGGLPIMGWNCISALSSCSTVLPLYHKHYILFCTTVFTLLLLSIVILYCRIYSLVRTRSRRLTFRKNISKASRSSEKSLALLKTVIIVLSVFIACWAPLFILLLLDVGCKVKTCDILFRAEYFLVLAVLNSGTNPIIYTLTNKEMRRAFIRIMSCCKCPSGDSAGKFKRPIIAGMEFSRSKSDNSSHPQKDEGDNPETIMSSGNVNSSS
T3 sequence (Q99500 whole entry): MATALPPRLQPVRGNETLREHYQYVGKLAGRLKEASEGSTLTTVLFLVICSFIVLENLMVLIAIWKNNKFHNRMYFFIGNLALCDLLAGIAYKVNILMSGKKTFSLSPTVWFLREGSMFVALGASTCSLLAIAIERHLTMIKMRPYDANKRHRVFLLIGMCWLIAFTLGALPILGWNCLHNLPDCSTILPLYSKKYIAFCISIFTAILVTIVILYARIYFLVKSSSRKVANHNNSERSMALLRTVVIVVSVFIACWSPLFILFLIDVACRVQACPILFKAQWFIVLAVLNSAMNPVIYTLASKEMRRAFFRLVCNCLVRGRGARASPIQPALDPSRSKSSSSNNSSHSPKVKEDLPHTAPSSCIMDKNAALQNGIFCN
T1 sequence (Q9H228 whole entry): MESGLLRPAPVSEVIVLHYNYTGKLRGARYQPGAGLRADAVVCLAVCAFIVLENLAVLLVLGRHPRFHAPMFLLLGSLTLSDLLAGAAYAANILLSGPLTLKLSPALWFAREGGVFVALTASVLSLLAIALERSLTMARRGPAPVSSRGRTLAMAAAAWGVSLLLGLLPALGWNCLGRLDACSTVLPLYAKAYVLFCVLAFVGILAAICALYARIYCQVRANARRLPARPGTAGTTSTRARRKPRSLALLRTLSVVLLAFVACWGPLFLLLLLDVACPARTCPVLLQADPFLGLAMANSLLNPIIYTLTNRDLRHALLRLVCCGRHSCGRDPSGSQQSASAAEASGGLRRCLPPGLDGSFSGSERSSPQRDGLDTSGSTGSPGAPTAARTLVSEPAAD

| Structure (SMILES) | EC50 (human S1PR5; [1]) [nM] | EC50 (human S1PR1; [2]) [nM] | EC50 (human S1PR3; [3]) [nM] | EC50 (human S1PR4; [4]) [nM] | EC50 (human S1PR5; S1P5 EC50 range) [nM] | EC50 (human S1PR1) [nM] | EC50 (human S1PR3) [nM] | EC50 (human S1PR4) [nM] |
| --- | --- | --- | --- | --- | --- | --- | --- | --- |
| O=C(O)C1CN(C2COc3cc(C#Cc4c(F)cccc4F)ccc3C2)C1 (centres unmarked) [Compound 47, 1-(7-((2,6-difluorophenyl)ethynyl)chroman-3-yl)azetidine-3-carboxylic acid] | 10 to 100 | > 1000 | > 1000 | < 1000 | – | – | – | – |
| CCc1cccc(Cl)c1COc1ccc2c(c1)CCC(NCc1cc(=O)[nH]o1)C2 (centres unmarked) [Compound 220, 5-[[[6-[(2-chloro-6-ethyl-phenyl)methoxy]tetralin-2-yl]amino]methyl]isoxazol-3-one] | – | – | – | – | < 10 | < 1000 | > 1000 | < 1000 |
| O=C(O)C1CN(C2COc3cc(OCc4ccc(Cl)cc4Cl)ccc3C2)C1 (centres unmarked) [Compound 68, 1-(7-((2,4-dichlorobenzyl)oxy)chroman-3-yl)azetidine-3-carboxylic acid] | 100 to 1000 | > 1000 | > 1000 | > 1000 | – | – | – | – |
| O=C(O)C1CCN(C2CCc3cc(OCc4c(Cl)cccc4Cl)ccc3C2)CC1 (centres unmarked) [Compound 31, 1-(6-((2,6-dichlorobenzyl)oxy)-1,2,3,4-tetrahydronaphthalen-2-yl)piperidine-4-carboxylic acid] | < 10 | < 1000 | > 1000 | < 1000 | – | – | – | – |
| O=C(O)C1CCN(C2COc3cc(OCc4c(Cl)cccc4Cl)ccc3C2)C1 (single isomer, unassigned) [Compound 50, 1-(7-((2,6-dichlorobenzyl)oxy)chroman-3-yl)pyrrolidine-3-carboxylic acid] | < 10 | > 1000 | > 1000 | > 1000 | – | – | – | – |
| O=C(O)COC1CCc2cc(OCc3cc(F)ccc3C(F)(F)F)ccc2C1 (centres unmarked) [Compound 168, 2-[6-[[5-fluoro-2-(trifluoromethyl)phenyl]methoxy]tetralin-2-yl]oxyacetic acid] | < 10 | > 1000 | > 1000 | < 1000 | – | – | – | – |
| CCc1cccc(Cl)c1COc1ccc2c(c1)CCC(NC1(C(=O)O)CC1)C2 (centres unmarked) [Compound 5, 1-((6-((2-chloro-6-ethylbenzyl)oxy)-1,2,3,4-tetrahydronaphthalen-2-yl)amino)cyclopropanecarboxylic acid] | < 10 | > 1000 | > 1000 | < 1000 | – | – | – | – |
| O=C(O)C1CN(C2COc3cc(-c4ccc(OCc5cccc(F)c5F)cc4)ccc3C2)C1 (centres unmarked) [Compound 56, 1-(7-(4-((2,3-difluorobenzyl)oxy)phenyl)chroman-3-yl)azetidine-3-carboxylic acid] | 10 to 100 | < 1000 | > 1000 | > 1000 | – | – | – | – |
| O=C(O)CNC1CCc2cc(OCc3c(Cl)cccc3Cl)ccc2C1 (centres unmarked) [Compound 75, 2-((6-((2,6-dichlorobenzyl)oxy)-1,2,3,4-tetrahydronaphthalen-2-yl)amino)acetic acid] | < 10 | > 1000 | > 1000 | < 1000 | – | – | – | – |
| O=C(O)C1CN(C2COc3cc(C#Cc4c(Cl)cccc4Cl)ccc3C2)C1 (centres unmarked) [Compound 44, 1-(7-((2,6-dichlorophenyl)ethynyl)chroman-3-yl)azetidine-3-carboxylic acid] | 10 to 100 | > 1000 | > 1000 | > 1000 | – | – | – | – |
| O=C(O)COC1CCc2cc(OCc3c(Cl)cccc3C(F)(F)F)ccc2C1 (centres unmarked) [Compound 167, 2-[6-[[2-chloro-6-(trifluoromethyl)phenyl]methoxy]tetralin-2-yl]oxyacetic acid] | < 10 | > 1000 | > 1000 | > 1000 | – | – | – | – |
| CCc1cccc(Cl)c1COc1ccc2c(c1)CCC(N(C)CCC(=O)O)C2 (centres unmarked) [Compound 17, 3-((6-((2-chloro-6-ethylbenzyl)oxy)-1,2,3,4-tetrahydronaphthalen-2-yl)(methyl)amino)propanoic acid] | < 10 | < 1000 | > 1000 | < 1000 | – | – | – | – |
| CN(CCC(=O)O)C1CCc2cc(C#Cc3c(Cl)cccc3Cl)ccc2C1 (centres unmarked) [Compound 13, 3-((6-((2,6-dichlorophenyl)ethynyl)-1,2,3,4-tetrahydronaphthalen-2-yl)(methyl)amino)propanoic acid] | < 10 | > 1000 | > 1000 | < 1000 | – | – | – | – |
| CC(C)(C)c1ccc(COc2ccc3c(c2)CCC(OCC(=O)O)C3)cc1 (centres unmarked) [Compound 211, 2-[6-[(4-tert-butylphenyl)methoxy]tetralin-2-yl]oxyacetic acid] | 10 to 100 | > 1000 | > 1000 | > 1000 | – | – | – | – |
| CCc1cccc(Cl)c1COc1ccc2c(c1)CCC1C2OCCN1CCC(=O)O (centres unmarked) [Compound 82, 3-(8-((2-chloro-6-ethylbenzyl)oxy)-5,6-dihydro-2H-naphtho[1,2-b][1,4]oxazin-4(3H,4aH,10bH)-yl)propanoic acid hydrochloride] | < 10 | < 1000 | > 1000 | < 1000 | – | – | – | – |
| CCc1cccc(Cl)c1COc1ccc2c(c1)OCC(N1CC(C(=O)O)C1)C2 (centres unmarked) [Compound 23, 1-(7-((2-chloro-6-ethylbenzyl)oxy)chroman-3-yl)azetidine-3-carboxylic acid] | < 10 | > 1000 | > 1000 | < 1000 | – | – | – | – |
| O=C(O)C1CN(C2COc3cc(-c4ccc(OCC5CCCCC5)cc4)ccc3C2)C1 (centres unmarked) [Compound 55, 1-(7-(4-(cyclohexylmethoxy)phenyl)chroman-3-yl)azetidine-3-carboxylic acid] | < 10 | < 1000 | > 1000 | > 1000 | – | – | – | – |
| CCc1cccc(Cl)c1COc1ccc2c(c1)CCC(NCC(=O)NOC)C2 (centres unmarked) [Compound 218, 2-[[6-[(2-chloro-6-ethyl-phenyl)methoxy]tetralin-2-yl]amino]-N-methoxy-acetamide] | 100 to 1000 | > 1000 | > 1000 | > 1000 | – | – | – | – |
| O=C(O)CCNC1CCc2cc(/C=C/c3ccccc3)ccc2C1 (centres unmarked) [Compound 19, (E)-3-((6-styryl-1,2,3,4-tetrahydronaphthalen-2-yl)amino)propanoic acid] | 10 to 100 | > 1000 | > 1000 | < 1000 | – | – | – | – |
| O=C(O)C1CN(C2COc3cc(OCc4c(Cl)cccc4Cl)ccc3C2)C1 (centres unmarked) [Compound 1, 1-(7-((2,6-dichlorobenzyl)oxy)chroman-3-yl)azetidine-3-carboxylic acid] | < 10 | > 1000 | > 1000 | > 1000 | – | – | – | – |
| O=C(O)C1CCN(CC2OCCc3cc(OCc4c(Cl)cccc4Cl)ccc32)CC1 (centres unmarked) [Compound 70, 1-((6-((2,6-dichlorobenzyl)oxy)isochroman-1-yl)methyl)piperidine-4-carboxylic acid] | 10 to 100 | > 1000 | > 1000 | < 1000 | – | – | – | – |
| CCc1ccccc1COc1ccc2c(c1)OCC(N1CC(C(=O)O)C1)C2 (centres unmarked) [Compound 64, 1-(7-((2-ethylbenzyl)oxy)chroman-3-yl)azetidine-3-carboxylic acid] | 10 to 100 | > 1000 | > 1000 | < 1000 | – | – | – | – |
| O=C(O)CCNC1CCc2cc(C#Cc3c(Cl)cccc3Cl)ccc2C1 (centres unmarked) [Compound 12, 3-((6-((2,6-dichlorophenyl)ethynyl)-1,2,3,4-tetrahydronaphthalen-2-yl)amino)propanoic acid] | < 10 | > 1000 | > 1000 | < 1000 | – | – | – | – |
| O=C(O)C12CC(NC3COc4cc(OCc5c(Cl)cccc5Cl)ccc4C3)(C1)C2 (centres unmarked) [Compound 48, 3-((7-((2,6-dichlorobenzyl)oxy)chroman-3-yl)amino)-bicyclo[1.1.1]pentane-1-carboxylic acid] | 10 to 100 | > 1000 | > 1000 | > 1000 | – | – | – | – |
| O=C(O)C1CN(C2COc3cc(C#Cc4cc(F)ccc4F)ccc3C2)C1 (centres unmarked) [Compound 38, 1-(7-((2,5-difluorophenyl)ethynyl)chroman-3-yl)azetidine-3-carboxylic acid] | < 10 | > 1000 | > 1000 | < 1000 | – | – | – | – |
| O=C(O)CNC1CCc2cc(C#Cc3cc(F)cc(F)c3)ccc2C1 (centres unmarked) [Compound 28, 2-((6-((3,5-difluorophenyl)ethynyl)-1,2,3,4-tetrahydronaphthalen-2-yl)amino)acetic acid] | < 10 | > 1000 | > 1000 | < 1000 | – | – | – | – |
